Reference: patent US11065202B2, “Multi-component nanochains” (CASE WESTERN RESERVE UNIVERSITY, priority 2011, dated 2021)

What was measured:
[1] = test system: 13762 MAT B III tumor model; experiment: Tumor growth and survival study; assay type: in vivo, rats; conditions: single treatment 0.5 mg/kg DOX, without RF
Source text: The rat tumor model was established by a subcutaneous injection of 1×10^6 13762 MAT B III cells into the right flank of female Fisher rats. Mouse tumors were generated orthotopically in female BALB/c mice by injection of 0.5×10^6 4 T1 cells into the inguinalmammary fat pad. Once the appropriate tumor size was established (diameter ˜0.5 cm), the animals were used in the in vivo studies. Each cell line required different lag times to produce a tumor lesion of about 0.5 cm in size (5 and 8 days for the MAT B III and 4T1 model, respectively). Based on our prior experience, we chose this tumor size as the starting point of the animal studies, since the primary tumor mass is sufficiently large to present angiogenic, necrotic and invasive areas, and therefore may be more informative and relevant to human disease.
Once the appropriate tumor sizes were established (diameter ˜0.5 cm), the rat tumor model was IV injected with DOX-NC at a dose of 0.5 mg/kg DOX. After 24 hours from injection, animals were exposed to the RF field operated as described previously. Following the same dose and schedule, control groups included animals treated with DOX-NC (but no RF), only RF, liposomal DOX, liposomal DOX with RF, free DOX, and saline. […] The tumor growth was monitored every day using caliper measurements. […] Time of death was determined to be the following day.

MAT B III tumors = experiment: Histological evaluation of apoptosis (TUNEL), rat model; assay type: in vivo, rats; conditions: 5 mg/kg, IV
Procedure: The rat MAT B III and the mouse 4T1 models were used in the histological studies. Animals treated with DOX-NC were exposed to the RF field 24 hours post-injection. After 24 hours from the application of the RF field, the animals were anesthetized with an IP injection of ketamine/xylazine and transcardially perfused with heparinized PBS followed by 4% paraformaldehyde in PBS. Controls included animals treated with DOX-NC (no RF), 35-nm liposomal DOX (with RF), 100-nm liposomal DOX (with RF), free DOX, RF alone and saline. The tumors were explanted and post-fixed overnight in 4% paraformaldehyde in PBS. The fixed tumors were soaked in 30% sucrose (w/v) in PBS at 4° C. for cryosectioning. Serial sections of 12 μm thickness were collected using a cryostat (Leica CM 300).
To visualize the tumor microvasculature, the tissue slices were immunohistochemically stained for the specific endothelial antigen CD31 (BD Biosciences, Pharmingen). The tissues were also stained with the nuclear stain DAPI. […] Direct fluorescence (red) imaging of tumor sections were performed for imaging DOX. Apoptosis was detected using a TUNEL assay (Promega). […] The total number of cells was counted based on the nuclear stain (DAPI) in multiple histological sections per tumor (minimum 20), whereas apoptotic cells were quantified based on TUNEL-stained nuclei.

Compound: COc1cccc2c1C(=O)c1c(O)c3c(c(O)c1C2=O)C[C@@](O)(C(=O)CO)C[C@@H]3O[C@H]1C[C@H](N)[C@H](O)[C@H](C)O1 [free DOX, doxorubicin]
- tumor growth [1]: failed to produce any therapeutic benefits
- apoptotic cells in tumor (visual inspection) (MAT B III tumors): substantial number of apoptotic cells
